These are literature values, as cited in patent US4041155A, “Long acting somatostatin composition” (American Home Products Corporation, priority 1974, dated 1977).

The test system of one data set is circulating levels of GH. The conditions noted are these: subcutaneous route, cited from earlier work.
A further data set deals with GH secretion. The conditions noted are these: patients with acromegaly; cited from earlier work.
Data set [1] concerns release of glucagon, insulin, and GH. The note with it: oral glucose tolerance and intravenous arginine tests; cited from earlier work.

Take “linear somatostatin: reduced tetradecapeptide; differs from cyclic form by lacking the bridging bond between the two cysteinyl sulfhydryls”: in the data set on circulating levels of GH ("gentled" rats), the “circulating levels of GH” value was “lowers the circulating levels of GH”. The “elevation of plasma GH concentration induced by sodium pentobarbital” value in the data set with circulating levels of GH (rats) is recorded as “prevents the elevation of plasma GH concentration”. Also, in the data set with circulating levels of GH (rats, estimated), the “duration of activity, half-life” value is listed as “less than ten minutes”.
Take “Somatostatin: cyclic disulfide tetradecapeptide; Somatotropin-release inhibiting factor secreted by the hypothalamus”: in the data set with GH secretion, the “circulating levels of glucose” value is listed as “fall”, the “circulating levels of insulin” value is “fall”, the “circulating levels of prolactin” value is “fall” and the “duration of biologic action” value is recorded as “brief”. For the same substance, in the data set with GH secretion, the free fatty acids entry is on record as “increase”, the “inhibitory action on GH secretion” value is “nearly complete”, the “levels of follicle-stimulating hormone” value is “No effects” and the “levels of luteinizing hormone” value is “No effects”. In addition, the levels of thyrotropin result with GH secretion is given as “No effects”. In data set [1], the “release of GH” value is “impairs the release”, the release of glucagon entry is given as “impairs the release” and the release of insulin entry was “impairs the release”.
